Values of other authors as cited in patent US20140208977A1, “POLYDISPERSE COMPOSITIONS AND METHODS FOR ELIMINATING VOLATILE ORGANIC COMPOUNDS” (priority 2013, published 2014).

conditions: 77° F.

SMILES	Vapor Pressure [mmHg]
C[Si](C)(C)O[Si](C)(C)O[Si](C)(C)O[Si](C)(C)O[Si](C)(C)C [Dodecamethylpentasiloxane]	0.7
C[Si]1(C)O[Si](C)(C)O[Si](C)(C)O[Si](C)(C)O[Si](C)(C)O1 [Decamethylcyclopentasiloxane]	0.4
C[Si](C)(C)O[Si](C)(C)O[Si](C)(C)O[Si](C)(C)C [Decamethyltetrasiloxane]	0.55
C[Si]1(C)O[Si](C)(C)O[Si](C)(C)O[Si](C)(C)O[Si](C)(C)O[Si](C)(C)O1 [Dodecamethylcyclohexasiloxane]	0.02
C[Si](C)(C)O[Si](C)(C)O[Si](C)(C)C [Octamethyltrisiloxane]	3.9
C[Si](C)(C)O[Si](C)(C)C [Hexamethyldisiloxane]	31
C[Si]1(C)O[Si](C)(C)O[Si](C)(C)O[Si](C)(C)O1 [Octamethylcyclotetrasiloxane]	1.3

conditions: 25° C.

SMILES	Water Solubility [µg/mL]
C[Si]1(C)O[Si](C)(C)O[Si](C)(C)O1 [Hexamethylcyclotrisiloxane]	1.56
C[Si](C)(C)O[Si](C)(C)O[Si](C)(C)C [Octamethyltrisiloxane]	0.035
